From patent publication US20250297243A1, “SINGLE CELL MULTIOMICS” (BioSkryb Genomics, Inc., priority 2022, published 2025)

Tested on: MOLM-13 acute myeloid leukemia cells
Test: MOLM-13 quizartinib drug resistance model (cell growth under continual drug treatment)
Assay type: cell-based
Experimental: Since the ITD mutation, found in ˜20% of AML patients, hyperactivates FLT3 signaling and results in poor prognosis and relapse, non-resistant, drug-sensitive cells were treated with a continual dose of 2 nM quizartinib. This drug is a selective type II kinase inhibitor targeting FLT3. […] MOLM-13 acute myeloid leukemia cells harboring heterozygous FLT3 internal tandem duplication (ITD) were obtained from the DSMZ-German Collection of Microorganisms and Cell Cultures (ACC 554). Cells were maintained in RPMI 1640 (Gibco 11875-093) supplemented with 10% FBS and penicillin/streptomycin, and sub-cultured every 2-3 days while maintaining a density range of 2.5 E5-1.5 E6 cells/ml. For generation of the quizartinib-resistant MOLM-13 line, cells were continually treated with 2 nM quizartinib (Selleckchem AC220) or DMSO vehicle control for matched parental control line and drug replenished at each subculturing until emergence of resistant clones at 5 weeks duration in culture. Genomic DNA (Zymo Research Quick-DNA Microprep w\Plus Kit, D3020) or total RNA (Qiagen RNeasy Plus Kit, 74034) was isolated from quizartinib-resistant and matched parental MOLM-13 cells at time of FACS sorting to generate bulk sequencing control libraries for comparison to single cell datasets and for quantitative PCR template.

Question: Which “emergence of resistant clones, duration in culture” value (continual 2 nM quizartinib, drug replenished at each subculturing) does the source give for `CC(C)(C)c1cc(NC(=O)Nc2ccc(-c3cn4c(n3)sc3cc(OCCN5CCOCC5)ccc34)cc2)no1` [quizartinib] here?
Answer: The value was 5 weeks.

Question: And the “growth inhibition/apoptosis of drug-sensitive MOLM-13 cells” value (continual dose of 2 nM quizartinib, FLT3 ITD MOLM-13 cells, before resistance emerged)?
Answer: The value was “marked growth inhibition/apoptosis”.
